From patent publication US20090264528A1, “SERINE PALMITOYLCOA TRANSFERASE (SPT) INHIBITION BY MYRIOCIN OR GENETIC DEFICIENCY DECREASES CHOLESTEROL ABSORPTION” (The Research Foundation of State University of New York, priority 2008, published 2009)

Key:
[1] = target: T1, Serine palmitoylCoA transferase (SPT) (Mus musculus, UniProt O35704+P97363); test: Tissue SPT activity assay, small intestine homogenate of treated mice; format: in vivo; settings: chow diet plus myriocin for 3 weeks, vs chow controls
T1 construct: from tissue; host or cells: small intestine homogenate of C57BL/6J WT and apoE KO mice fed chow with or without myriocin
T1 sequence (O35704 1-473): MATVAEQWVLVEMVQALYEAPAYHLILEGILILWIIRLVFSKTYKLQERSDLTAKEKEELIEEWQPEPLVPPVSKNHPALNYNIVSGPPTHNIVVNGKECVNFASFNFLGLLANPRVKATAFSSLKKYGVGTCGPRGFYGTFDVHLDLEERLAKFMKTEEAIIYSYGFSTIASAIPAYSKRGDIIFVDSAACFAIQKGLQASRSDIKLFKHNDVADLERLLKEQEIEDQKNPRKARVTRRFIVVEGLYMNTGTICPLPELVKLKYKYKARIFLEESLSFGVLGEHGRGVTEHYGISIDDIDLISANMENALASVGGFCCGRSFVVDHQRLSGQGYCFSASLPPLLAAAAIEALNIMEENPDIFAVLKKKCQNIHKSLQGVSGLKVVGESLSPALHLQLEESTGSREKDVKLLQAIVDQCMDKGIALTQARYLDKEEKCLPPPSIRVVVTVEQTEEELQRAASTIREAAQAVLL
T1 sequence (P97363 1-560): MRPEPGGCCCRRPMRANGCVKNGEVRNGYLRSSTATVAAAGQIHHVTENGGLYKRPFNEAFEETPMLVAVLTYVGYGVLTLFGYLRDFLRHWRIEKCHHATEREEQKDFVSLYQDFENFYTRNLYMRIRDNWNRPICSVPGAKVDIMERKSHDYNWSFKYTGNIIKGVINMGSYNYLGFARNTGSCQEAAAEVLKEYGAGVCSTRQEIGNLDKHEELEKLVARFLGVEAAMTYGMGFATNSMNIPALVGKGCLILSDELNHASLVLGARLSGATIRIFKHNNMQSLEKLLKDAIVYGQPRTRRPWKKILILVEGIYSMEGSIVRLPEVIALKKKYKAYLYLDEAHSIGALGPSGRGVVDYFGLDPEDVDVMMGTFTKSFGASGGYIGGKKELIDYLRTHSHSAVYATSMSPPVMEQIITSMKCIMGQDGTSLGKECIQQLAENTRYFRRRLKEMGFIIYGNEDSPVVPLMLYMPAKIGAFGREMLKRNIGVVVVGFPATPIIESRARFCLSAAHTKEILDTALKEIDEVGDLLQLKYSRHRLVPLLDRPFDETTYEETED
T1 sequence (Q8R207 1-71 partner): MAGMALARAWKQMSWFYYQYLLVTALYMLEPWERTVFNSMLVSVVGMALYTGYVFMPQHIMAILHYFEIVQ
Procedure: FIGS. 1A-1C depict three graphical representations of SPT deficiency decreased SPT activity in mouse small intestine. SPT activity of small intestine homogenate was measured with […] and palmitoyl-coenzyme A as substrates. TLC was performed to separate the product, 3-keto-dihydrosphingosine (KDS, Inset). KDS band was scanned. In FIG. 1A, wildtype (WT) mice fed chow diet or chow diet plus myriocin. In FIG. 1B, apoE KO (knockout)
Mice and diet: Male C57BL/6J and apoE KO (Apolipoprotien E knockout) mice with a C57BL/6J background were obtained from the Jackson Laboratory (Bar Harbor, Me.). Sptlc1 heterozygous KO mice with a C57BL/6 background were created and bred in the inventors' laboratory. Myriocin was mixed with a chow diet. […] The myriocin dose was chosen from a previous dose-dependent experiment with apoE-KO mice. Controls consisted of WT or apoE KO mice fed a chow diet (n=6). Sptlc1 heterozygous KO (Sptlc1^+/−)(n=6) and WT mice were also fed a chow diet.
Tissue SPT activity assay: Mouse small intestine (0.2 g) was homogenized in 0.5 ml of 50 mM Tris-HCl, pH 7.4, 5 mM EDTA, and 250 mM sucrose. SPT activity in the homogenates was measured with [^14C]-serine and palmitoyl-coenzyme A for substrates, as previously described (22), which is incorporated herein by reference in its entirety. […]

NPC1L1 mRNA = test: Real-time PCR, NPC1L1 mRNA; format: in vivo, mouse; settings: small intestine (jejunum)
Procedure: FIGS. 9A-F depict that Mouse small intestine and liver NPC1L1, ABCG5/G8, and ABCA1 mRNA measurements. NPC1L1, ABCG5/G8, and ABCA1 mRNA levels were measured by real-time PCR as described in “Methods and Materials.” FIG. 9A, jejunum from WT mice with or without myriocin treatment; FIG. 9B, jejunum from apoE KO mice with or without myriocin treatment; FIG. 9C, jejunum from WT and Sptlc1^+/− mice; FIG. 9D, liver from WT mice with or without myriocin treatment; FIG. 9E, liver from apoE KO mice with or without myriocin treatment; FIG. 9F, liver from WT and Sptlc1^+/− mice. Values are mean±SD, n=5. *P<0.01.
Real-time PCR examined genes' expression: Mice were sacrificed by cervical dislocation. Jejunum was dissected, and total RNA extracted with Trizol (Invitrogen). cDNA was synthesized with an Invitrogen kit. […] The genes' relative expression was expressed as mean±SD. […]
For further elucidation of the possible mechanisms for cholesterol absorption reduction in the SPT-deficient small intestine, NPC1L1, ABCG5/G8, and ABCA1 mRNA levels in myriocin-treated WT, apoE KO, and Sptlc1^+/− mice, as well as in controls were measured. […] Also, the liver mRNA levels were measured to find that myriocin treatment or Sptlc1 deficiency has no influence on ABCG5/G8 mRNA levels (FIG. 7B). […] NPC1L1 mRNA in WT or Sptlc1^+/− livers were not detected (data not shown).

CCCCCCC(=O)CCCCCC/C=C/C[C@@H](O)[C@H](O)[C@@](N)(CO)C(=O)O [Myriocin, myriocin]
less SPT activity than controls in the small intestine ([1]; WT mice): 60% | less SPT activity than controls in the small intestine ([1]; apoE KO mice): 65% | NPC1L1 mRNA levels (NPC1L1 mRNA): No significant changes
